Data published in US11286268B1, “EIF4E-inhibiting compounds and methods” (EFFECTOR THERAPEUTICS, INC., priority 2019, dated 2022).
pIC50: −log10 of the molar value.

Each compound was assayed against recombinant eIF4E (Homo sapiens (Human), UniProt P06730) (assay: Fluorescence polarization competition assay for eIF4E binding potency). Conditions: inhibition of eIF4E/EDA-m7GDP-ATTO-550 binding; calculated IC50 values, Table 4B; read-out: IC50.
Summary of the method: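 IC50 values reflect 50% displacement of 20 nM EDA-m7GDP-ATTO-550 from 75 nM eIF4E, measured by fluorescence polarization after 30 min at room temperature. Buffer: 20 mM Tris pH 7.5, 100 mM NaCl, 1 mM DTT, 0.02% Tween-20; 1% DMSO.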

recombinant eIF4E, sequence (P06730 whole entry): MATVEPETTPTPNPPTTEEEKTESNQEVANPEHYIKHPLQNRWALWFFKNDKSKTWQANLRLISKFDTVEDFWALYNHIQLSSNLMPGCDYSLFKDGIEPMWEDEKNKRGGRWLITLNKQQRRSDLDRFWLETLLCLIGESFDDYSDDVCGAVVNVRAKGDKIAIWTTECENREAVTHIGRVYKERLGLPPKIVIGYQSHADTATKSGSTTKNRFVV

Row | SMILES | pIC50
1 | Cc1nc2cnc(N3CCC34CN(CC(F)F)C4)c(C#N)c2c(=O)n1CC#Cc1ccc(Cl)cc1-c1ccnc2c(C(=O)O)csc12 [compound 1499] | 7.56
2 | Cc1nc2cnc(N3CCC34CCN(CC(F)F)CC4)c(C#N)c2c(=O)n1CC#Cc1ccc(Cl)cc1-c1ccnc2c(C(=O)O)csc12 [compound 1500] | 7.77
3 | Cc1nc2cnc(N(C)C3CCN(CC(F)(F)F)CC3)c(C#N)c2c(=O)n1CC#Cc1ccc(Cl)cc1-c1ccnc2c(C(=O)NS(C)(=O)=O)csc12 [compound 1501] | 7.69
4 | CCC(F)(F)CN1CCC(N(C)c2ncc3nc(C)n(CC#Cc4ccc(Cl)cc4-c4ccnc5c(C(=O)O)csc45)c(=O)c3c2C#N)CC1 [compound 1502] | 7.58
5 | Cc1nc2cnc(N(C)C3CCN(CCOC(F)F)CC3)c(C#N)c2c(=O)n1CC#Cc1ccc(Cl)cc1-c1ccnc2c(C(=O)O)csc12 [compound 1503] | 7.72
6 | Cc1nc2cnc(N(C)C3CCN(C4(COC(F)F)CC4)CC3)c(C#N)c2c(=O)n1CC#Cc1ccc(Cl)cc1-c1ccnc2c(C(=O)O)csc12 [compound 1504] | 7.87
7 | COCCC(CCOC)N(C)c1ncc2nc(C)n(CC#Cc3ccc(Cl)cc3-c3ccnc4c(C(=O)O)csc34)c(=O)c2c1C#N [compound 1505] | 7.89
8 | Cc1nc2cnc(N(C)C3CCN(C(C)(C)C(C)(F)F)CC3)c(C#N)c2c(=O)n1CC#Cc1ccc(Cl)cc1-c1ccnc2c(C(=O)O)csc12 [compound 1506] | 7.56
9 | Cc1nc2cnc(N(C)C3CCN(C(C)(C)C(F)(F)F)CC3)c(C#N)c2c(=O)n1CC#Cc1ccc(Cl)cc1-c1ccnc2c(C(=O)O)csc12 [compound 1507] | 7.80
10 | Cc1nc2cnc(N(C)C3CCN(C(C)CF)CC3)c(C#N)c2c(=O)n1CC#Cc1ccc(Cl)cc1-c1ccnc2c(C(=O)O)csc12 (stereo not shown) [compound 1508] | 7.76
11 | Cc1nc2cnc(N3CCN(CCCOC(F)F)CC3)c(C#N)c2c(=O)n1CC#Cc1ccc(Cl)cc1-c1ccnc2c(C(=O)O)csc12 [compound 1509] | 7.43
12 | Cc1nc2cnc(N3CCN(C4(COC(F)F)CC4)CC3)c(C#N)c2c(=O)n1CC#Cc1ccc(Cl)cc1-c1ccnc2c(C(=O)O)csc12 [compound 1510] | 7.70

Other lines, results leading:

Row | pIC50 | SMILES
13 | 7.63 | Cc1nc2cnc(N3CCN([C@H]4C[C@@H](OC(F)F)C4)CC3)c(C#N)c2c(=O)n1CC#Cc1ccc(Cl)cc1-c1ccnc2c(C(=O)O)csc12 [compound 1511]
14 | 7.91 | Cc1nc2cnc(N3CC4(C3)CN(C3CCC3)C4)c(C#N)c2c(=O)n1CCOc1ccc(Cl)cc1-c1ccnc2c(C(=O)NS(C)(=O)=O)csc12 [compound 1512]
15 | 7.87 | Cc1nc2cnc(N(C)C3CCN(CCOC(F)F)CC3)c(C#N)c2c(=O)n1CCOc1ccc(Cl)cc1-c1ccnc2c(C(=O)O)csc12 [compound 1513]
16 | 7.29 | Cc1nc2cnc(N(C)C3CCN(C(C)(C)C(F)(F)F)CC3)c(C#N)c2c(=O)n1CCOc1ccc(Cl)cc1-c1ccnc2c(C(=O)O)csc12 [compound 1514]
17 | 7.49 | Cc1nc2cnc(N(C)C3CCN(CC(F)(F)C(F)F)CC3)c(C#N)c2c(=O)n1CCOc1ccc(Cl)cc1-c1ccnc2c(C(=O)O)csc12 [compound 1515]
18 | 7.77 | Cc1nc2cnc(N3CCN(CC(C)(C)F)CC3)c(C#N)c2c(=O)n1CCOc1ccc(Cl)cc1-c1ccnc2c(C(=O)NS(C)(=O)=O)csc12 [compound 1516]
19 | 7.97 | Cc1nc2cnc(N(C)C3CCN(C(C)C(F)F)CC3)c(C#N)c2c(=O)n1CC#Cc1ccc(Cl)cc1-c1ccnc2c(C(=O)O)csc12 (stereo not shown) [compound 1518]
20 | 7.82 | CC(=O)CN1CCC(N(C)c2ncc3nc(C)n(CC#Cc4ccc(Cl)cc4-c4ccnc5c(C(=O)O)csc45)c(=O)c3c2C#N)CC1 [compound 1519]
21 | 7.75 | Cc1nc2cnc(N(C)C3CCN(CCC(F)(F)F)CC3)c(C#N)c2c(=O)n1CC#Cc1ccc(Cl)cc1-c1ccnc2c(C(=O)O)csc12 [compound 1520]
22 | 7.75 | Cc1nc2cnc(N(C)C3CCN(C4(C(F)F)CC4)CC3)c(C#N)c2c(=O)n1CC#Cc1ccc(Cl)cc1-c1ccnc2c(C(=O)O)csc12 [compound 1522]
